Test results: PubChem BioAssay AID330 (DTP/NCI, 2004)
“And” between values parts separate entries of the source, which are not always exact repeats. Equal values may be shown once. Inconclusive results and toxic doses are left out. The calls were made as follows: active = survival T/C of 150% or more; inactive = T/C below 125% in these data.

System: P388 leukemia ip, CD2F1 mice, survival T/C
Assay: NCI In Vivo Anticancer Drug Screen. Data for tumor model P388 Leukemia (intraperitoneal) in CD2F1 (CDF1) mice
Conditions: endpoint: median survival time, higher = longer survival
In short: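 Mice carrying the transplanted tumor received test compound or vehicle. Survival was recorded in each group, and the value is the treated-group measurement divided by that of the vehicle-treated control group.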

[1] = dose: 100.0 mg/kg/injection, schedule: Q04DX003 (ip), vehicle: saline
[2] = dose: 200.0 mg/kg/injection, schedule: Q04DX003 (ip), vehicle: saline
[3] = dose: 400.0 mg/kg/injection, schedule: Q04DX003 (ip), vehicle: saline
[4] = dose: 12.5 mg/kg/injection, schedule: Q01DX005 (ip), vehicle: saline with Tween-80
[5] = dose: 25.0 mg/kg/injection, schedule: Q01DX005 (ip), vehicle: saline with Tween-80
[6] = dose: 50.0 mg/kg/injection, schedule: Q01DX005 (ip), vehicle: saline with Tween-80
[7] = dose: 100.0 mg/kg/injection, schedule: Q01DX005 (ip), vehicle: saline with Tween-80
[8] = dose: 50.0 mg/kg/injection, schedule: Q01DX009 (ip), vehicle: saline with Tween-80
[9] = dose: 100.0 mg/kg/injection, schedule: Q01DX009 (ip), vehicle: saline with Tween-80
[10] = dose: 200.0 mg/kg/injection, schedule: Q01DX009 (ip), vehicle: saline with Tween-80
[11] = dose: 60.0 mg/kg/injection, schedule: Q01DX005 (ip), vehicle: saline with Tween-80
[12] = dose: 120.0 mg/kg/injection, schedule: Q01DX005 (ip), vehicle: saline with Tween-80
[13] = dose: 240.0 mg/kg/injection, schedule: Q01DX005 (ip), vehicle: saline with Tween-80
[14] = dose: 50.0 mg/kg/injection, schedule: Q01DX009 (ip), vehicle: saline
[15] = dose: 100.0 mg/kg/injection, schedule: Q01DX009 (ip), vehicle: saline
[16] = dose: 200.0 mg/kg/injection, schedule: Q01DX009 (ip), vehicle: saline

Measured: T/C

COC(=O)c1[c]([Sn]([CH3])([CH3])[CH3])n[n]([Sn]([CH3])([CH3])[CH3])c1C(=O)OC
inactive: dose: 6.25 mg/kg/injection, schedule: Q04DX003 (ip), vehicle: saline 98 % of control | dose: 12.5 mg/kg/injection, schedule: Q04DX003 (ip), vehicle: saline 98 % of control

OC12CCCCC1CCCS2 (stereo not given)
inactive: [1] 98 % of control | [2] 94 % of control | [3] 102 % of control

CC1=NN(C(=O)c2ccccc2)C(=O)C1N=Nc1ccc([N+](=O)[O-])cc1 (stereo not given)
inactive: dose: 25.0 mg/kg/injection, schedule: Q04DX002 (ip), vehicle: saline with Tween-80 101 % of control | dose: 50.0 mg/kg/injection, schedule: Q04DX002 (ip), vehicle: saline with Tween-80 100 % of control | dose: 100.0 mg/kg/injection, schedule: Q04DX002 (ip), vehicle: saline with Tween-80 88 % of control and 92 % of control

NNC(=O)CCSC(=O)Nc1ccccc1
inactive: [4] 110 % of control | [5] 106 % of control | [6] 107 % of control and 112 % of control | [7] 114 % of control

c1ccc(N(c2ccccc2)c2nnnn2-c2ccccc2)cc1
inactive: dose: 25.0 mg/kg/injection, schedule: Q01DX009 (ip), vehicle: saline with Tween-80 98 % of control | [8] 94 % of control | [9] 89 % of control

CC1(C)OC(=O)N=C1c1ccccc1Cl
inactive: dose: 60.0 mg/kg/injection, schedule: Q01DX005 (ip), vehicle: Klucel (hydroxypropylcellulose) (HPC) 108 % of control | dose: 120.0 mg/kg/injection, schedule: Q01DX005 (ip), vehicle: Klucel (hydroxypropylcellulose) (HPC) 104 % of control | dose: 240.0 mg/kg/injection, schedule: Q01DX005 (ip), vehicle: Klucel (hydroxypropylcellulose) (HPC) 108 % of control

CC(C)(C)OC(=O)NC(CCCCNC(=O)C(F)(F)F)C(=O)ON1C(=O)CCC1=O (stereo not given)
inactive: [8] 102 % of control | [9] 99 % of control | [10] 106 % of control

CC/S(=N\S(=O)(=O)c1ccc(C)cc1)c1cccc[n+]1[O-] (stereo not given)
inactive: [11] 100 % of control | [12] 110 % of control | [13] 100 % of control

S=C([S-])N1CC[n+]2c(-c3ccccc3)csc21
inactive: [14] 101 % of control | [15] 100 % of control | [16] 91 % of control

NC(=O)C(F)(F)C(F)(F)C(N)=O
inactive: [11] 107 % of control | [12] 112 % of control | [13] 104 % of control

NC(=O)CC[n+]1cccc(C(=O)O)c1
inactive: [1] 100 % of control | [2] 95 % of control | [3] 95 % of control

C=CCN=C(N)S[As]1c2ccccc2Oc2ccccc21
inactive: [14] 100 % of control | [15] 98 % of control | [16] 102 % of control

CCCCCC[N+](C)([O-])CCCCCC[N+](C)([O-])CCCCCC (stereo not given)
inactive: [14] 107 % of control | [15] 101 % of control | [16] 97 % of control

CN1C(=O)NC2(CCCCC2)C1=O
inactive: dose: 50.0 mg/kg/injection, schedule: Q01DX005 (ip), vehicle: Klucel (hydroxypropylcellulose) (HPC) 105 % of control | dose: 100.0 mg/kg/injection, schedule: Q01DX005 (ip), vehicle: Klucel (hydroxypropylcellulose) (HPC) 100 % of control | dose: 200.0 mg/kg/injection, schedule: Q01DX005 (ip), vehicle: Klucel (hydroxypropylcellulose) (HPC) 100 % of control

COC1OC(C)(C(OC)OC)CCC1C (stereo not given)
inactive: [6] 99 % of control | [7] 94 % of control | dose: 200.0 mg/kg/injection, schedule: Q01DX005 (ip), vehicle: saline with Tween-80 92 % of control

Cn1cc(N)c(=O)[nH]c1=O
inactive: dose: 50.0 mg/kg/injection, schedule: Q01DX005 (ip), vehicle: saline 98 % of control | dose: 100.0 mg/kg/injection, schedule: Q01DX005 (ip), vehicle: saline 101 % of control | dose: 200.0 mg/kg/injection, schedule: Q01DX005 (ip), vehicle: saline 102 % of control

CN(C)c1nc2c(N)ncnc2n1C1OC(CO)C(O)C1O (stereo not given)
inactive: [4] 100 % of control and 106 % of control | [5] 103 % of control and 106 % of control | [6] 112 % of control and 113 % of control | [7] 123 % of control

CC(=O)NCCc1nc(-c2nc(C(=O)NCCCCN)cs2)cs1
inactive: dose: 12.5 mg/kg/injection, schedule: Q01DX009 (ip), vehicle: water 100 % of control | dose: 25.0 mg/kg/injection, schedule: Q01DX009 (ip), vehicle: water 98 % of control and 109 % of control | dose: 50.0 mg/kg/injection, schedule: Q01DX009 (ip), vehicle: water 100 % of control and 113 % of control | dose: 100.0 mg/kg/injection, schedule: Q01DX009 (ip), vehicle: water 103 % of control and 119 % of control | dose: 200.0 mg/kg/injection, schedule: Q01DX009 (ip), vehicle: water 107 % of control | dose: 400.0 mg/kg/injection, schedule: Q01DX009 (ip), vehicle: water 104 % of control

COC(=O)[C@@]12OC[C@]34[C@H]([C@@H](O)[C@@H]1O)[C@@]1(C)[C@H](O)C(=O)C=C(C)[C@@H]1C[C@H]3OC(=O)C(OC(C)=O)[C@@H]24 (stereo not given in full)
inactive: dose: 0.1 micrograms/kg/injection, schedule: Q01DX009 (ip), vehicle: saline + alcohol 96 % of control | dose: 0.2 micrograms/kg/injection, schedule: Q01DX009 (ip), vehicle: saline + alcohol 102 % of control | dose: 0.5 micrograms/kg/injection, schedule: Q01DX009 (ip), vehicle: saline + alcohol 105 % of control | dose: 1.0 micrograms/kg/injection, schedule: Q01DX009 (ip), vehicle: saline + alcohol 93 % of control | dose: 2.0 micrograms/kg/injection, schedule: Q01DX009 (ip), vehicle: saline + alcohol 100 % of control | dose: 4.0 micrograms/kg/injection, schedule: Q01DX009 (ip), vehicle: saline + alcohol 88 % of control

CC1=NN(C(=O)c2ccncc2)C(=O)C1N=Nc1ccc(C)c([N+](=O)[O-])c1 (stereo not given)
inactive: [8] 107 % of control | [9] 101 % of control | [10] 97 % of control

Nc1cc(-c2ccc(Br)cc2)nn1-c1nc(-c2ccc(Br)cc2)cs1
inactive: dose: 25.0 mg/kg/injection, schedule: Q01DX009 (ip), vehicle: Klucel (hydroxypropylcellulose) (HPC) 87 % of control | dose: 50.0 mg/kg/injection, schedule: Q01DX009 (ip), vehicle: Klucel (hydroxypropylcellulose) (HPC) 86 % of control | dose: 100.0 mg/kg/injection, schedule: Q01DX009 (ip), vehicle: Klucel (hydroxypropylcellulose) (HPC) 87 % of control | dose: 200.0 mg/kg/injection, schedule: Q01DX009 (ip), vehicle: Klucel (hydroxypropylcellulose) (HPC) 89 % of control

CS/C(=C\c1ccc2ccccc2[n+]1C)N1CCN(CCCO)CC1
inactive: dose: 15.0 mg/kg/injection, schedule: Q01DX005 (ip), vehicle: saline 104 % of control | dose: 30.0 mg/kg/injection, schedule: Q01DX005 (ip), vehicle: saline 95 % of control | dose: 60.0 mg/kg/injection, schedule: Q01DX005 (ip), vehicle: saline 95 % of control

O=c1[nH]c2c(c(O)c1-c1ccccc1)CCCN2
inactive: dose: 100.0 mg/kg/injection, schedule: Q04DX003 (ip), vehicle: Klucel (hydroxypropylcellulose) (HPC) 102 % of control | dose: 200.0 mg/kg/injection, schedule: Q04DX003 (ip), vehicle: Klucel (hydroxypropylcellulose) (HPC) 100 % of control | dose: 400.0 mg/kg/injection, schedule: Q04DX003 (ip), vehicle: Klucel (hydroxypropylcellulose) (HPC) 110 % of control

O=[N+]([O-])c1ccccc1S(=O)NCc1c(Cl)cccc1Cl (stereo not given)
inactive: [11] 100 % of control | [12] 90 % of control | [13] 100 % of control
